Experiments:
Format in all cases: cell-based, mouse
[1] = system: Hedgehog Signaling Pathway; test: Gli-Luc reporter gene cell assay in C3H10T1/2/Gli-Luc cells stimulated with Shh; settings: Mus musculus, C3H 10T1/2, 24 h, 30 nM Shh, luciferase activity (RLU), read-out: IC50 values of compounds that inhibit Hh pathway
Method in brief: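 IC50 from nonlinear fit of luciferase RLU versus log compound concentration. Stably transfected C3H10T1/2/Gli-Luc cells received a 7-point compound series alongside Shh (30 nM in the added medium) for 24 h at 37 °C in DMEM/10% FBS, then were lysed for luciferase readout.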

[2] = system: Hedgehog Signaling Pathway; test: SAG-induced differentiation of C3H10T1/2 cells into osteoblastic cells, intracellular alkaline phosphatase activity; settings: Mus musculus, C3H 10T1/2, 120 h, 1 μM SAG, 5 days, alkaline phosphatase activity (OD405), read-out: IC50 values of compounds that inhibit Hh pathway
Method in brief: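 Mouse C3H10T1/2 cells were induced with SAG and exposed to compound (10 μM to 1 nM) for 5 days at 37 °C. Cells were lysed in 0.2% Triton, and alkaline phosphatase activity was read as OD405 over 30 min at 37 °C in pH 9.8 substrate buffer. IC50 came from a non-linear fit of background-subtracted OD405 against log concentration.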

[3] = system: Hedgehog Signaling Pathway; test: SHH-induced differentiation of C3H10T1/2 cells into osteoblastic cells, intracellular alkaline phosphatase activity; settings: Mus musculus, C3H 10T1/2, 120 h, 10 nM SHH-N, 5 days, alkaline phosphatase activity (OD405), read-out: IC50 values of compounds that inhibit Hh pathway
Method in brief: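 Hedgehog pathway inhibition was taken as loss of SHH-driven osteoblastic differentiation. Test compound (10 nM–10 μM) plus SHH-N (10 nM) was applied to C3H10T1/2 cells for 5 days, then lysate phosphatase turnover was measured as the 30-min OD405 change at 37 °C. IC50 was fitted from activity versus log dose.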

## Cc1cc(N2C[C@@H](C)N(C)[C@@H](C)C2)ccc1C(=O)Nc1cnc(C)c(-c2nc3ccccc3[nH]2)c1 [Example 88, N-(5-(1H-benzo[d]imidazol-2-yl)-6-methylpyridin-3-yl)-2-methyl-4-((3S,5R)-3,4,5-trimethylpiperazin-1-yl)benzamide]
[1]
  IC50: 6.7 nM
[2]
  IC50: 119 nM
[3]
  IC50: 11 nM

## Cc1ccc2nc(-c3cc(NC(=O)c4ccc(N5C[C@@H](C)N(C)[C@@H](C)C5)cc4C)ccc3Cl)[nH]c2c1 [Example 112, N-(3-(6-methyl-1H-benzo[d]imidazol-2-yl)-4-chlorophenyl)-2-methyl-4-((3S,5R)-3,4,5-trimethylpiperazin-1-yl)benzamide]
[1]
  IC50: 5.5 nM
[2]
  IC50: 83 nM
[3]
  IC50: 8.6 nM

## CCCc1cnc(-c2cc(NC(=O)c3ccc(N4C[C@@H](C)N(C)[C@@H](C)C4)cc3C)ccc2Cl)[nH]1 [Example 172, N-(3-(5-propyl-1H-imidazol-2-yl)-4-chlorophenyl)-2-methyl-4-((3S,5R)-3,4,5-trimethylpiperazin-1-yl)benzamide]
[1]
  IC50: 17 nM
[2]
  IC50: 127 nM
[3]
  IC50: 45 nM

## C[C@@H]1CN(c2ccc(C(=O)Nc3ccc(Cl)c(-c4nc5ccccc5[nH]4)c3)cc2Cl)C[C@H](C)N1C [Example 120, N-(3-(1H-benzo[d]imidazol-2-yl)-4-chlorophenyl)-3-chloro-4-((3S,5R)-3,4,5-trimethylpiperazin-1-yl)benzamide]
[1]
  IC50: 1.7 nM
[2]
  IC50: 57 nM
[3]
  IC50: 7.4 nM
